Data as given in article PMC12373499 (Nature Metabolism, 2025).
Where “and” joins values, the source holds several entries; their conditions need not be identical. Identical values can stand only once. Like-named read-outs stand apart in the source and are kept apart here. *1 amine or outer side, *2 acyl side, *3 side chain or, on linkers, in order; H or OH if unused. Where a SMILES comes first, the peptide text is derived from it. Side-chain parts run from the residue outwards. [ ]: non-standard residue; d: D form. The star is where a group is joined. X1 = CN1C(=CC=CC=CC2=[N+](CCCCCC(=O)NCCN3C(=O)CC(*)C3=O)c3ccccc3C2(C)C)C(C)(C)c2ccccc21; X2 = CN1C(=CC=CC2=[N+](CCCCCC(=O)NCCN3C(=O)CC(*)C3=O)c3ccccc3C2(C)C)C(C)(C)c2ccccc21; C20 diacid = O=C(O)CCCCCCCCCCCCCCCCCCC(=O)*; γGlu = O=C(O)[C@H](CCC(=O)[*:2])N[*:1]; AEEA = NCCOCCOCC(=O)O; Aib = CC(C)(N)C(=O)O

Experiments:
[1] = target: Nluc-tagged human GIPR (human) (UniProt P48546); assay: FRET or BRET
[2] = target: Nluc-tagged human GLP1R (human) (UniProt P43220); assay: FRET or BRET
[3] = target: human GIPR (Nluc-GIPR) (human) (UniProt P48546); assay: FRET or BRET; NanoBRET saturation binding on HEK293T cells transiently expressing Nluc-GLP1R or Nluc-GIPR; PBS with 0.1% BSA and 0.01% NanoGlo; daLUXendin added over a range of concentrations, without or with 1 uM GIP and 1 uM Exendin-9 to determine specific binding; fit 'One Site - Specific Binding'
[4] = target: human GLP1R (Nluc-GLP1R) (human) (UniProt P43220); assay: as above
[5] = target: human GIPR (Nluc-GIPR) (human) (UniProt P48546); assay: as above; remark: listed apart in the source
[6] = target: human GLP1R (Nluc-GLP1R) (human) (UniProt P43220); assay: as above; remark: listed apart in the source
mouse islets = assay: Colocalization (Manders' coefficient) of probes in mouse islets; format: cell-based; settings: WT islets live, TzCy3 500nM + LUX645 100nM
Protocol: (§1) Probe labelling was analysed using corrected total cell fluorescence, which is integrated density − (area of selected cell × mean fluorescence of background readings)[52],[53]. Colocalization was determined using Manders’ coefficient, which calculates the proportion of pixels in one channel that also show intensity from both channels. Full width at half maximum was used to analyse labelling patterns at the membrane versus cytoplasm. All analyses were performed in ImageJ (NIH), with brightness and contrast linearly adjusted across the entire image for presentation purposes and applied equally between all states under examination.

GLP1R^KO/KO islets = assay: Probe labelling of GLP1R^KO/KO islets; format: cell-based, mouse; settings: for CTCF values of daLUXendin544: individual values
Protocol: Mice were humanely killed using a schedule-1 method, and the common bile duct was injected with Serva NB8 (1 mg ml^−1) collagenase. The inflated pancreas was dissected, and islets were isolated using Histopaque-1119 and 1083 (Sigma-Aldrich) gradients and cultured at 37 °C, 5% CO2 in RPMI supplemented with 10% FBS (Gibco), 100 units per ml penicillin and 100 μg ml^−1 streptomycin. Islets were used up to 4 days after isolation.
as §1

mGIPR = target: T1, mGIPR (Mus musculus, UniProt Q0P543); assay: HTRF cAMP assay in transiently transfected AD293 cells; format: cell-based; settings: based upon cAMP assays and binding affinity
T1 construct: expressed in transfected cells; host or cells: AD293 cells, transient transfection (Lipofectamine 2000)
T1 sequence (Q0P543 19-460): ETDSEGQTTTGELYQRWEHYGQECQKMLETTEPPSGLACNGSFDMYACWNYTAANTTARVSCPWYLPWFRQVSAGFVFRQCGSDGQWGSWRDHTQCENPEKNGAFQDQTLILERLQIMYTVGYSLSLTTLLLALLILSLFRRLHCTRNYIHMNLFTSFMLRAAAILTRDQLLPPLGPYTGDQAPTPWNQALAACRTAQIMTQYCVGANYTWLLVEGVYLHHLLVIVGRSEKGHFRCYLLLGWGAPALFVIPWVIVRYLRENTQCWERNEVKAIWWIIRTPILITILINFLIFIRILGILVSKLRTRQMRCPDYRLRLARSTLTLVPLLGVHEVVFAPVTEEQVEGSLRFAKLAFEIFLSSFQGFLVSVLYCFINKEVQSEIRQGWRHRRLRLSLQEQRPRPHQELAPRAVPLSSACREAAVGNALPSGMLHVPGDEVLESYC
Protocol: AD293 cells (RRID:CVCL_9804) were transiently transfected 24 h before the assay in six-well plates with plasmids encoding wild-type hGLP1R, mGLP1R, hGIPR or mGIPR using Lipofectamine 2000. AD293 cells were authenticated at source using STR profiling. Cells were detached and treated with a range of agonist concentrations in serum-free DMEM + 0.1% BSA for 30 min at 37 °C in 96-well plates, followed by the addition of lysis buffer 2 (Cisbio) at a 1:2 ratio. Lysates were further diluted 1:10 to avoid spectral interference from the higher concentrations of fluorescent ligands in the HTRF assay, and the concentration of cAMP was determined after the addition of cAMP Dynamic detection reagents (Cisbio).

Nluc–GLP1R (hGLP1R) = target: T2, Nluc–GLP1R (hGLP1R) (Homo sapiens, UniProt P43220); assay: NanoBRET saturation binding assay, HEK293T cells
T2 construct: expressed in transfected cells; host or cells: HEK293T cells, transient expression
Protocol: (§2) HEK293T cells (RRID:CVCL_0063) were cultured in DMEM/F12 GlutaMAX (ThermoFisher), supplemented with 10% FBS and 1% antibiotic-antimycotic solution and cultured at 37 °C, 5% CO2. HEK293T cells were authenticated at source using STR profiling. […] Media was then removed and the cells were incubated in PBS supplemented with 0.1% BSA and 0.01% NanoGlo (Promega). […] Plates were read using a PheraSTAR microplate reader, using the NanoBRET filter module. BRET ratios (λacceptor/λdonor) were calculated, and saturation data fit using the ‘One Site – Specific Binding’ equation of GraphPad Prism 10. Competition binding was fit using the ‘One Site – Fit Ki’ equation.

Nluc–GIPR (hGIPR) = target: T3, Nluc–GIPR (hGIPR) (Homo sapiens, UniProt P48546); assay: NanoBRET saturation binding assay, HEK293T cells
T3 construct: expressed in transfected cells; host or cells: HEK293T cells, transient expression
T3 sequence (P48546 22-466): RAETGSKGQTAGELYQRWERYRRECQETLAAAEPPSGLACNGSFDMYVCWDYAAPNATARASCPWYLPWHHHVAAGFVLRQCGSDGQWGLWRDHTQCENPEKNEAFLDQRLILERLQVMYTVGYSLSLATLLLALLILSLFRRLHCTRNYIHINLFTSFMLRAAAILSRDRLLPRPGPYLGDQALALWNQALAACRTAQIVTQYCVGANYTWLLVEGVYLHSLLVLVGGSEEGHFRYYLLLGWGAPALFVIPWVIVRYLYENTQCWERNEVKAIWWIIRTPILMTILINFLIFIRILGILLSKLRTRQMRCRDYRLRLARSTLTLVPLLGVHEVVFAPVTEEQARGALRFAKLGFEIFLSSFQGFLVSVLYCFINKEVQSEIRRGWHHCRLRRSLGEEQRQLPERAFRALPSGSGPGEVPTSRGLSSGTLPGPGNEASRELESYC
Protocol: as §2

Sequence of human GLP1R (Nluc-GLP1R) (human) (P43220 24-463): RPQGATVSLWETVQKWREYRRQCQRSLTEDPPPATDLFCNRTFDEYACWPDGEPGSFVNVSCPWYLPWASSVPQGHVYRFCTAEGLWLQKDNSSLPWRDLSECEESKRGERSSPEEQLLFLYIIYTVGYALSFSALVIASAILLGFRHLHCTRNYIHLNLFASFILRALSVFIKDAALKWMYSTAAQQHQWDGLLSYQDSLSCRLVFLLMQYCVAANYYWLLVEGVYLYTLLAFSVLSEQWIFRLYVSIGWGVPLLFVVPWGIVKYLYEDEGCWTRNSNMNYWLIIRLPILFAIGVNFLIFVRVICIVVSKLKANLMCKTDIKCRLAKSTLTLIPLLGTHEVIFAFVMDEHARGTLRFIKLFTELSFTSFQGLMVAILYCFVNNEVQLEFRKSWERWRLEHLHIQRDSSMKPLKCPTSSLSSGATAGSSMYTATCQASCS
T2 sequence (P43220 24-463): as above
Sequence of Nluc-tagged human GLP1R (human) (P43220 24-463): as above

Molecule: daLUXendin660+ (peptide)
- Kd [1]: 6.46 nM
- Kd [2]: 1.38 nM
- Kd [3]: 12.2 nM and 10.7 nM and 14.1 nM
- Kd [4]: 2.14 nM and 1.77 nM and 3.89 nM
- Kd [5]: 6.46 nM
- Kd [6]: 1.38 nM

Molecule: daLUXendin660 (peptide)
- Kd [1]: 8.7 nM
- Kd [2]: 2.18 nM
- Kd [3]: 10.2 nM and 4.22 nM and 7.41 nM

Molecule: CC[C@H](C)[C@H](NC(=O)[C@H](CC(C)C)NC(=O)[C@H](Cc1c[nH]c2ccccc12)NC(=O)[C@H](CCC(N)=O)NC(=O)[C@@H](NC(=O)[C@H](Cc1ccccc1)NC(=O)[C@H](C)NC(=O)[C@H](CCCCN)NC(=O)[C@H](CCC(N)=O)NC(=O)[C@H](C)NC(=O)[C@@H](NC(=O)[C@H](CCCCN)NC(=O)[C@H](CC(=O)O)NC(=O)[C@H](CC(C)C)NC(=O)C(C)(C)NC(=O)[C@@H](NC(=O)[C@H](CO)NC(=O)[C@H](Cc1ccc(O)cc1)NC(=O)[C@H](CC(=O)O)NC(=O)[C@H](CO)NC(=O)[C@@H](NC(=O)[C@H](Cc1ccccc1)NC(=O)[C@@H](NC(=O)CNC(=O)[C@H](CCC(=O)O)NC(=O)C(C)(C)NC(=O)[C@@H](N)Cc1ccc(O)cc1)[C@@H](C)O)[C@@H](C)O)[C@@H](C)CC)[C@@H](C)CC)C(C)C)C(=O)N[C@@H](C)C(=O)NCC(=O)NCC(=O)N1CCC[C@H]1C(=O)N[C@@H](CO)C(=O)N[C@@H](CO)C(=O)NCC(=O)N[C@@H](C)C(=O)N1CCC[C@H]1C(=O)N1CCC[C@H]1C(=O)N1CCC[C@H]1C(=O)N[C@@H](CSC1CC(=O)N(CCNC(=O)CCCCC[N+]2=C(C=CC=C3N(C)c4ccccc4C3(C)C)C(C)(C)c3ccccc32)C1=O)C(N)=O (stereo partly drawn) [daLUXendin544] (H-Y[Aib]EGTFTSDYSI[Aib]LDKIAQKAFVQWLIAGGPSSGAPPPC(X2)-NH2)
- M1, daLUXendin544 vs LUXendin645 (mouse islets; image 1): 0.917
- M2, daLUXendin544 vs LUXendin645 (mouse islets; image 1): 0.994
- Manders' R, daLUXendin544 vs LUXendin645 (mouse islets; image 1): 0.852
- Pearson's, daLUXendin544 vs LUXendin645 (mouse islets; image 1): 0.83
- M1, daLUXendin544 vs LUXendin645 (mouse islets; image 2): 0.927
- M2, daLUXendin544 vs LUXendin645 (mouse islets; image 2): 0.996
- Manders' R, daLUXendin544 vs LUXendin645 (mouse islets; image 2): 0.744
- Pearson's, daLUXendin544 vs LUXendin645 (mouse islets; image 2): 0.679
- M1, daLUXendin544 vs LUXendin645 (mouse islets; image 3): 0.956
- M2, daLUXendin544 vs LUXendin645 (mouse islets; image 3): 0.995
- Manders' R, daLUXendin544 vs LUXendin645 (mouse islets; image 3): 0.727
- Pearson's, daLUXendin544 vs LUXendin645 (mouse islets; image 3): 0.616
- CTCF values of daLUXendin544 (GLP1R^KO/KO islets; GLP1R-/- + GIP): 466750 and 425691 and 412346 and 398972 and 803260 and 1574894 and 1388527 and 1122278 and 848564 and 323100 and 555998 and 554147 and 545690
- CTCF values of daLUXendin544 (GLP1R^KO/KO islets; GLP1R-/-): 1138974 and 1525024 and 2200632 and 868278 and 1499758 and 2095767 and 1136530 and 1464030 and 649874 and 1541507 and 604319 and 865421
- CTCF values of daLUXendin544 (GLP1R^KO/KO islets; GLP1RWT/WT): 3434876 and 3087793 and 4777725 and 2187512 and 1805461 and 1906480 and 1520223 and 2186271 and 2694391 and 5360897 and 5342379 and 1938584 and 1738950
- reduction of labelling in GLP1R^KO/KO islets (GLP1R^KO/KO islets; versus wild-type islets): ~ 50%
- selectivity for mouse GLP1R over GIPR compared to tirzepatide (mGIPR): approximately fourfold less selectivity

Molecule: CC[C@H](C)[C@H](NC(=O)[C@H](CC(C)C)NC(=O)[C@H](Cc1c[nH]c2ccccc12)NC(=O)[C@H](CCC(N)=O)NC(=O)[C@@H](NC(=O)[C@H](Cc1ccccc1)NC(=O)[C@H](C)NC(=O)[C@H](CCCCNC(=O)COCCOCCNC(=O)COCCOCCNC(=O)CC[C@H](NC(=O)CCCCCCCCCCCCCCCCCCC(=O)O)C(=O)O)NC(=O)[C@H](CCC(N)=O)NC(=O)[C@H](C)NC(=O)[C@@H](NC(=O)[C@H](CCCCN)NC(=O)[C@H](CC(=O)O)NC(=O)[C@H](CC(C)C)NC(=O)C(C)(C)NC(=O)[C@@H](NC(=O)[C@H](CO)NC(=O)[C@H](Cc1ccc(O)cc1)NC(=O)[C@H](CC(=O)O)NC(=O)[C@H](CO)NC(=O)[C@@H](NC(=O)[C@H](Cc1ccccc1)NC(=O)[C@@H](NC(=O)CNC(=O)[C@H](CCC(=O)O)NC(=O)C(C)(C)NC(=O)[C@@H](N)Cc1ccc(O)cc1)[C@@H](C)O)[C@@H](C)O)[C@@H](C)CC)[C@@H](C)CC)C(C)C)C(=O)N[C@@H](C)C(=O)NCC(=O)NCC(=O)N1CCC[C@H]1C(=O)N[C@@H](CO)C(=O)N[C@@H](CO)C(=O)NCC(=O)N[C@@H](C)C(=O)N1CCC[C@H]1C(=O)N1CCC[C@H]1C(=O)N1CCC[C@H]1C(=O)N[C@@H](CSC1CC(=O)N(CCNC(=O)CCCCC[N+]2=C(C=CC=CC=C3N(C)c4ccccc4C3(C)C)C(C)(C)c3ccccc32)C1=O)C(N)=O (stereo partly drawn) [daLUXendin660+] (H-Y[Aib]EGTFTSDYSI[Aib]LDKIAQK([AEEA-AEEA-γGlu-C20 diacid])AFVQWLIAGGPSSGAPPPC(X1)-NH2)
- Bmax best-fit (nM), hGLP1R (Nluc–GLP1R (hGLP1R); Nluc-tagged hGLP1R, NanoBRET saturation, n = 3 independent repeats): 0.03361 nM
- Bmax (Nluc–GLP1R (hGLP1R); hGLP1R, nonlin fit, One site -- Specific binding, best-fit value of pooled data): 0.03361
- Bmax best-fit (nM), hGIPR (Nluc–GIPR (hGIPR); Nluc-tagged hGIPR, NanoBRET saturation, n = 3 independent repeats): 0.02314 nM
- Bmax (Nluc–GIPR (hGIPR); hGIPR, nonlin fit, One site -- Specific binding, best-fit value of pooled data): 0.02314
